Assay results: patent publication US7320993B1, “Aryl-substituted pyridylalkane, alkene, and alkine carboxamides useful as cytostatic useful as cytostatic and immuosuppressive agents” (Astellas Deutschland GmbH, priority 1997, dated 2008)
Where two headings read alike, the source gives them in different places.

What was measured:
THP-1 cells = test: Growth inhibition of THP-1 human monocytic leukemia cells (WST-1 reagent); type: cell-based
Protocol: (§1) The tumor growth inhibiting activity of the substances was determined on human tumor cells in standardized in vitro test systems. In the screening tests, the substances gave IC50-values in a concentration range of 0.1 nM to 10 μM.
THP-1 cells derived from a human monocytic leukemia plated at a density of 200,000 cells/ml in 96-well plastic dishes. Cultivation occurred in RPMI 1640 nutrient medium with 10% foetal calf serum (FCS) in a tissue culture incubator with a gas mixture of 5% CO2 and 95% air at a temperature of 37° C. For the individual concentrations and the controls without test substances as well as for the background with nutrient medium but without cells, three-fold batches were done for each. After four days of substance incubation 20 μl WST-1 reagent (Boehringer Mannheim) was respectfully pipetted in each individual well. After 30 to 60 minute incubation in the tissue culture incubator at 37° C. and 5% CO2, the light extinction was measured in an ELISA reader at 450 nm wave length. The backgrounds were each subtracted from the typical measured valves. The IC50-values (defined as that concentration in which the cell growth was inhibited by 50%) was taken from the dose-response curves and given as a comparative measurement for the activity of the test compounds.

A549 cells = test: Growth inhibition of A549 human lung carcinoma cells (sulforhodamin-B method); type: cell-based
Protocol: as §1
(§2) A549 cells derived from a human lung carcinoma plated at a density of 20,000 cells/ml in 12-well plastic dishes. Cultivation occurred in Richters IMEM-ZO nutrient medium with 5% foetal calf serum (FCS) in a tissue culture incubator with a gas mixture of 5% CO2 and 95% air at a temperature of 37° C. One day after plating, the culture medium was aspirated from the cells and replaced by fresh medium which contained the respective concentrations of the test substances. For the individual concentrations and the controls without test substances, three-fold batches were done for each. Three days after the beginning of treatment, the medium was again renewed with the test compounds. After four days of substance incubation, the test was ended and the protein amount in the individual wells was determined with the sulforhodamin-B-method (according to P. Skehan et al.: New Colorimetric Cytotoxicity Assay for Anticancer-Drug Screening. J. Natl. Cancer Inst. 82: 1107-1112, 1990). The IC50-values (defined as that concentration in which the cell growth was inhibited by 50%) was taken from the dose-response curves and given as a comparative measurement for the activity of the test compounds.

HepG2 cells = test: Growth inhibition of HepG2 human liver carcinoma cells (sulforhodamin-B method); type: cell-based
Protocol: as §1
as §2, with “HepG2” for “A549”, “liver” for “lung”, “[…]” for “20,000”, “six” for “four”

[1] = system: freshly isolated lymphocytes; test: Immunosuppressing activity on freshly isolated spleen lymphocytes (flow cytometry, vital cells); type: cell-based; conditions: Lymphocyte, 48 h; Swiss mouse spleen lymphocytes, 2 days incubation, percentage of vital cells by flow-through cytometer
Text: Many anti-tumor agents have not only a cytotoxic effect on tumor cells, but also on the blood cell system. This leads to a weakening of the immune defense, which can, in turn, be specifically employed to suppress the rejection reaction after an organ transplantation for example. Also use of the main compounds, optionally in combination with other immunological diseases (for example, psoriasis or autoimmune diseases) seems likely. In order to test the possibility for a therapeutic use in illnesses of this type, the substance activity was tested on freshly isolated lymphocytes as follows:
The spleen of a Swiss mouse served as a lymphocyte source. The lymphocyte population was isolated from the spleen cell […] suspension over a ficoll gradient and taken up in IMEM-ZO culture medium with 0.1% dextran 70,000 and 2% foetal calf serum. The cells were plated at a density of ca. 500,000 cells/well/ml in a 12-well plate, 1 ml doubly concentrated test substance solution was pipetted per well and this was subsequently incubated in a tissue culture incubator at 37° C. and 5% CO2. After 2 days, a 1 ml-aliquot with 5 μl of the fluorescent dye solutions propidium iodide (8 mg/ml) and 3,3′-dihexyloxacarbocyanin iodide (40 μg/ml) each was added per well, and incubated for 3 minutes at room temperature. Subsequently, 10,000 cells per each sample were measured on a flow-through cytometer and the percentage amount of vital cells in the population was determined. By means of the dose-response curves, IC50-values were calculated which were also employed in the following Tables for the characterization of the individual substances: […]

[2] = 96 h, A549 cells, four days of substance incubation, protein amount by sulforhodamin-B, read-out: IC50-value
[3] = 144 h, HepG2 cells, six days of substance incubation, protein amount by sulforhodamin-B, read-out: IC50-value

melting point [°C]	SMILES	also measured
120 to 121	O=C(C=Cc1cccnc1)NCCCCC=C(c1ccccc1)c1ccccc1 [Substance 120, N-(6,6-diphenyl-hex-5-enyl)-3-pyridin-3-yl-acrylamide]	IC50 (THP-1 cells; 96 h, THP-1 cells, four days of substance incubation, WST-1, extinction at 450 nm, read-out: IC50-value): 0.2 nM; IC50 (THP-1 cells; THP-1, monocytic leukemia, methods of point 1, read-out: IC50-values): 0.2 nM; IC50 (A549 cells; A549, lung carcinoma, methods of point 1, read-out: IC50-values): 2 nM; IC50 (HepG2 cells; HepG2, hepatocelluar carcinoma, methods of point 1, read-out: IC50-values): 0.5 nM; IC50 [1]: 0.5 nM
171 to 172	O=C(C=Cc1cccnc1)NCCCCNC(=O)C(c1ccccc1)c1ccccc1 [Substance 247, N-(4-diphenylacetylamino-butyl)-3-pyridin-3-yl-acrylamide]	IC50 (A549 cells; [2]): 2000 nM; IC50 [1]: 80 nM
183	O=C(C=Cc1cccnc1)NCCCCn1cnc(-c2ccccc2)c1-c1ccccc1 [Substance 63, N-[4-(4,5-diphenyl-imidazol-1-yl)-butyl]-3-pyridin-3-yl-acrylamide]	IC50 (HepG2 cells; [3]): 8 nM; IC50 [1]: 0.3 nM
89 to 91	CN(CCCCNC(=O)C=Cc1cccnc1)CCN(C)C(c1ccccc1)c1ccccc1 [Substance 193, N-(4-{[2-(benzhydryl-methyl-amino)-ethyl]-methyl-amino}-butyl)-3-pyridin-3-yl-acrylamide]	IC50 (A549 cells; [2]): 1000 nM
145 to 147	O=C(C=Cc1cccnc1)NCCCCCC(O)(c1ccccc1)c1ccccc1 [Substance 31, N-(6-hydroxy-6,6-diphenyl-hexyl)-3-pyridin-3-yl-acrylamide]	–
92 to 94	O=C(C=Cc1cccnc1)NCCCCN1CCc2ccccc2C(c2ccccc2)C1 (centres unmarked) [Substance 207, N-[4-(1-phenyl-1,2,4,5-tetrahydrobenzo[d]azepin-3-yl)-butyl]-3-pyridin-3-yl-acrylamide]	–
61 to 63	O=C(C=Cc1cccnc1)NCCCCCCCc1ccccc1 [Substance 3, N-(7-phenyl-heptyl)-3-pyridin-3-yl-acrylamide]	IC50 (A549 cells; [2]): 8000 nM
157 to 159	O=C(C=Cc1cccnc1)NCCCCC(O)(c1ccccc1)c1ccccc1 [Substance 27, N-(5-hydroxy-5,5-diphenyl-pentyl)-3-pyridin-3-yl-acrylamide]	IC50 (HepG2 cells; [3]): 40 nM
97 to 99	O=C(C=Cc1cccnc1)NCCCCCCNC(=O)N1c2ccccc2CCc2ccccc21 [Substance 295, N-[6-(10,11-dihydro-dibenzo[b,f]azepin-5-yl-carbonylamino)-hexyl]-3-pyridin-3-yl-acrylamide]	–
139 to 140	O=C(C=Cc1cccnc1)NCCCCCCCC(O)(c1ccccc1)c1ccccc1 [Substance 41, N-(8-hydroxy-8,8-diphenyloctyl)-3-pyridin-3-yl-acrylamide]	–
101 to 102	O=C(C=Cc1cccnc1)NCCCCNC(c1ccccc1)c1ccccc1 [Substance 187, N-[4-(benzhydryl-amino)-butyl]-3-pyridin-3-yl-acrylamide]	IC50 (A549 cells; [2]): 400 nM; IC50 (HepG2 cells; [3]): 200 nM
123 to 125	O=C(C=Cc1cccnc1)NCCCCNC(=O)N(c1ccccc1)c1ccccc1 [Substance 268, N-[4-(3,3-diphenyl-ureido)-butyl]-3-pyridin-3-yl-acrylamide]	–
105 to 107	O=C(C=Cc1cccnc1)NCCCCCCNC(=O)N(c1ccccc1)c1ccccc1 [Substance 270, N-[6-(3,3-diphenyl-ureido)-hexyl]-3-pyridin-3-yl-acrylamide]	–
194 to 196	O=C(C=Cc1cccnc1)NCCCCNC(=O)[C@@H]1C[C@H]1c1ccccc1 (relative stereo) [Substance 250, N-[4-(trans-2-phenyl-cyclopropyl-carbonylamino)-butyl]-3-pyridin-3-yl-acrylamide]	–
91 to 93	Cc1ccc(S(=O)(=O)NCCCCCCNC(=O)C=Cc2cccnc2)cc1 [Substance 310, 3-Pyridin-3-yl-N-[6-(tosylamino)-hexyl]-acrylamide]	–
